Measurements published in US10781183B2, “Small molecule inducers of reactive oxygen species and inhibitors of mitochondrial activity” (The Regents of the University of Michigan, priority 2016, dated 2020).
Like-named read-outs stand apart in the source and are kept apart here.

Tests used:
BxPC-3 cells = experiment: MTT cytotoxicity assay, BxPC-3; assay type: cell-based; conditions: Homo sapiens, three independent experiments
Method: (§1) MiaPaCa-2, Panc-1 and BxPC-3 pancreatic cancer cell lines were obtained from the ATCC. Normal pancreatic cells HPDE and HPNE were kindly provided (Translational Oncology Program, University of […], Ann Arbor, Mich.). Gemcitabine resistant cell line MiaPaCa-2-GR (gemcitabine resistant) was kindly provided (Department of Pathology, Wayne State University, Detroit, Mich.). All cell lines were cultured as monolayer and maintained in RPMI1640 supplemented with 10% fetal bovine serum (FBS) in a humidified atmosphere with 5% CO2 at 37° C. MiaPaCa-2-GR culture was supplemented with 200 nM gemcitabine.
(§2) Cytotoxicity of compounds was evaluated with 3-(4,5-dimethylthiazol-2-yl)-2,5-diphenyltetrazolium bromide (MTT) assay. Cells were placed in 96-well plate at 3000-8000 cells/well. After overnight attachment, compounds were added to the wells at sequential dilutions (30 nM-10 μM for most cell lines). After 72 h treatment, MTT was added into the media to a final concentration of 300 μg/mL. Cells were incubated for 3 h at 37° C., and the insoluble formazan converted by viable cells were dissolved in 150 μL of DMSO. Absorbance at 570 nm was read by microplate reader (Molecular devices, Sunnyvale, Calif.), and inhibition of cell proliferation was calculated using the following formula: Inhibition of cell proliferation (%)=(1−ODtreatment/ODcontrol)×100%

Panc-1 cells = experiment: MTT cytotoxicity assay, Panc-1; assay type: cell-based; conditions: Homo sapiens, three independent experiments
Method: as §1, §2

MiaPaCa-2 cells = experiment: MTT cytotoxicity assay, MiaPaCa-2; assay type: cell-based; conditions: Homo sapiens, MTT assay, Mean ± SD, three independent experiments
Method: as §1, §2

[1] = BXPC-3, 72 h, Table 1, 72 h, Mean ± SD
[2] = BXPC-3, Table 2, Mean ± SD, read-out: IC 50 BxPC-3
[3] = PANC-1, 72 h, Table 1, 72 h, Mean ± SD
[4] = PANC-1, Table 2, Mean ± SD, read-out: IC 50 Panc-1
[5] = MIA PaCa-2, 72 h, Table 1, 72 h
[6] = MIA PaCa-2, Table 2, read-out: IC 50 MiaPaCa-2

| Structure (SMILES) | melting point [°C] | IC50 (BxPC-3 cells; [1]) [µM] | IC50 (BxPC-3 cells; [2]) [µM] | IC50 (Panc-1 cells; [3]) [µM] | IC50 (Panc-1 cells; [4]) [µM] | IC50 (MiaPaCa-2 cells; [5]) [µM] | IC50 (MiaPaCa-2 cells; [6]) [µM] |
| --- | --- | --- | --- | --- | --- | --- | --- |
| O=C1C=CC(=O)c2ncncc21 [QD323, quinazoline-5,8-dione] | > 320 |  |  |  |  |  |  |
| O=C1C(Nc2ccc(Oc3ccccc3)cc2)=CC(=O)c2ncncc21 [QD324, 6-((4-phenoxyphenyl)amino)quinazoline-5,8-dione] | 169 to 171 | 3.6 ± 0.4 | 3.6 ± 0.4 | 1.8 ± 0.2 | 1.8 ± 0.2 | 3.7 ± 0.7 | 3.7 ± 0.7 |
| O=C1C(Nc2ccc(OC(F)(F)F)cc2)=CC(=O)c2ncncc21 [QD327, 6-((4-(trifluoromethoxy)phenyl)amino)quinazoline-5,8-dione] | 114 | 0.9 ± 0.1 | 0.9 ± 0.1 | 0.9 ± 0.1 | 0.9 ± 0.1 | 1.4 ± 0.2 | 1.4 ± 0.2 |
| NS(=O)(=O)c1ccc(NC2=CC(=O)c3ncncc3C2=O)cc1 [QD328, 4-((5,8-dioxo-5,8-dihydroquinazolin-6-yl)amino)benzenesulfonamide] | > 320 | > 10 | > 10 | > 10 | > 10 | > 10 | > 10 |
| O=C1C(Nc2ccc(CO)cc2)=CC(=O)c2ncncc21 [QD329, 6-((4-(hydroxymethyl)phenyl)amino)quinazoline-5,8-dione] |  | 2.7 ± 0.3 | 5.7 ± 0.3 | 1 ± 0.2 | 1 ± 0.2 | 3.5 ± 1.3 | 3.5 ± 1.3 |
| NC(=O)c1ccc(NC2=CC(=O)c3ncncc3C2=O)cc1 [QD330, 4-((5,8-dioxo-5,8-dihydroquinazolin-6-yl)amino)benzamide] | > 320 | > 10 | > 10 | 6.3 ± 0.3 | 6.3 ± 0.3 | 8 ± 0.9 | 8 ± 0.9 |
| COC(=O)c1ccc(NC2=CC(=O)c3ncncc3C2=O)cc1 [QD331, Methyl 4-((5,8-dioxo-5,8-dihydroquinazolin-6-yl)amino)benzoate] | 226 to 230 | 5.8 ± 0.3 | 5.8 ± 0.3 | 1.1 ± 0.4 | 1.1 ± 0.4 | 2.2 ± 0.4 | 2.2 ± 0.4 |
| CCOC(=O)c1ccc(NC2=CC(=O)c3ncncc3C2=O)cc1 [QD332, Ethyl 4-((5,8-dioxo-5,8-dihydroquinazolin-6-yl)amino)benzoate] | 206 to 207 | 5.9 ± 0.1 | 5.9 ± 0.1 | 1.6 ± 0.3 | 1.6 ± 0.3 | 5.5 ± 1.5 | 5.5 ± 1.5 |
| O=C1C(Nc2cccc(B(O)O)c2)=CC(=O)c2ncncc21 [QD333, (3-((5,8-dioxo-5,8-dihydroquinazolin-6-yl)amino)phenyl)boronic acid] | 208 to 210 | > 10 | > 10 | 9 ± 1 | 9 ± 1 | > 10 | > 10 |
| O=C1C(Nc2ccc(-c3ccc(F)cc3)cc2)=CC(=O)c2ncncc21 [QD334, 6-((4′-fluoro-[1,1′-biphenyl]-4-yl)amino)quinazoline-5,8-dione] | 285 to 289 | 4.4 ± 0.9 | 4.4 ± 0.9 | 3.2 ± 0.8 | 3.2 ± 0.8 | 3.5 ± 1 | 3.5 ± 1 |
| COc1ccc(-c2ccc(NC3=CC(=O)c4ncncc4C3=O)cc2)cc1 [QD336, 6-((4′-methoxy[1,1′-biphenyl]-4-yl)amino)quinazoline-5,8-dione] | 270 to 272 | 3.5 ± 0.5 | 3.5 ± 0.5 | 2.3 ± 0.3 | 2.3 ± 0.3 | 2.1 ± 0.5 | 2.1 ± 0.5 |
| Nc1ccc(-c2ccc(NC3=CC(=O)c4ncncc4C3=O)cc2)cc1 [QD337, 6-((4′-amino-[1,1′-biphenyl]-4-yl)amino)quinazoline-5,8-dione] | > 320 | 3.5 ± 0.6 | 3.5 ± 0.6 | 3.7 ± 0.1 | 3.7 ± 0.1 | 2.5 ± 0.2 | 2.5 ± 0.2 |
| Cc1ccc(-c2ccc(NC3=CC(=O)c4ncncc4C3=O)cc2F)cc1 [QD338, 6-((2-fluoro-4′-methyl-[1,1′-biphenyl]-4-yl)amino)quinazoline-5,8-dione] | 282 to 283 | 5 ± 0.7 | 5 ± 0.7 | 4.8 ± 0.1 | 4.8 ± 0.1 | 4.6 ± 1.1 | 4.6 ± 1.1 |
| Nc1ccc(C(=O)NCCC[P+](c2ccccc2)(c2ccccc2)c2ccccc2)cc1.[Br-] [QD339, (3-(4-aminobenzamido)propyl) triphenylphosphonium bromide] | 203 to 205 |  | > 30 | > 30 | > 30 |  | > 30 |
| O=C(NCCC[P+](c1ccccc1)(c1ccccc1)c1ccccc1)c1ccc(NC2=CC(=O)c3ncncc3C2=O)cc1 [QD340, (3-(4-((5,8-dioxo-5,8-dihydroquinazolin-6-yl)amino)benzamido)propyl) triphenylphosphonium bromide] |  | 21.5 ± 2.3 | 21.5 ± 2.3 | 11.7 ± 1.5 | 11.7 ± 1.5 | 15.3 ± 2.5 | 15.3 ± 2.5 |
| COc1cccc(NC2=CC(=O)c3ncncc3C2=O)c1 [QD353, 6-((3-methoxyphenyl)amino)quinazoline-5,8-dione] | 142 | 1.8 ± 0.1 | 1.8 ± 0.1 | 0.6 ± 0.1 | 0.6 ± 0.1 | 1.8 ± 0.3 | 1.8 ± 0.3 |
| COc1ccc(NC2=CC(=O)c3ncncc3C2=O)cc1 [QD354, 6-((4-methoxyphenyl)amino)quinazoline-5,8-dione] | 238 | 1.7 ± 0.2 | 1.7 ± 0.2 | 0.8 ± 0.2 | 0.8 ± 0.2 | 1.9 ± 0.2 | 1.9 ± 0.2 |
| COc1ccc(NC2=CC(=O)c3ncncc3C2=O)cc1OC [QD355, 6-((3,4-dimethoxyphenyl)amino)quinazoline-5,8-dione] |  | 1.5 ± 0.2 | 1.5 ± 0.2 | 0.9 ± 0.3 | 0.9 ± 0.3 | 1.8 ± 0.1 | 1.8 ± 0.1 |
| COc1cc(NC2=CC(=O)c3ncncc3C2=O)cc(OC)c1 [QD357, 6-((3,5-dimethoxyphenyl)amino)quinazoline-5,8-dione] |  | 16.3 ± 1.5 | 16.3 ± 1.5 | 7.2 ± 0.8 | 7.2 ± 0.8 | 7.7 ± 2 | 7.7 ± 2 |
| O=C(NCCC[P+](c1ccccc1)(c1ccccc1)c1ccccc1)c1cccc(NC2=CC(=O)c3ncncc3C2=O)c1 [QD359, (3-(3-((5,8-dioxo-5,8-dihydroquinazolin-6-yl)amino)benzamido)propyl) triphenylphosphonium bromide] |  | 21.3 ± 2.5 | 21.3 ± 2.5 | 14.3 ± 1.5 | 14.3 ± 1.5 | 16.3 ± 3.6 | 16.3 ± 3.5 |
| O=C1C(Nc2cccc(-c3ccccc3)c2)=CC(=O)c2ncncc21 [QD385, 6-(Biphenyl-3-ylamino)quinazoline-5,8-dione] | 199 to 200 |  |  |  |  |  |  |
| O=C1C(Nc2ccc(-c3ccc(Cl)cc3)cc2)=CC(=O)c2ncncc21 [QD386, 6-(4′-Chlorobiphenyl-4-ylamino)quinazoline-5,8-dione] | 292 to 293 |  |  |  |  |  |  |
| O=C1C(Nc2ccc(-c3cc(Cl)cc(Cl)c3)cc2)=CC(=O)c2ncncc21 [QD387, 6-(3′,5′-Dichlorobiphenyl-4-ylamino)quinazoline-5,8-dione] | 260 to 261 |  |  |  |  |  |  |
| O=C1C(Nc2ccc(N3CCCCC3)cc2)=CC(=O)c2ncncc21 [QD388, 6-(4-(Piperidin-1-yl)phenylamino)quinazoline-5,8-dione] | 209 |  |  |  |  |  |  |
| O=C1C(Nc2ccc(N3CCOCC3)cc2)=CC(=O)c2ncncc21 [QD389, 6-(4-Morpholinophenylamino)quinazoline-5,8-dione] | 226 to 227 |  |  |  |  |  |  |
| O=C1C(Nc2cccc3c2-c2ccccc2C3)=CC(=O)c2ncncc21 [QD390, 6-(9H-Fluoren-4-ylamino)quinazoline-5,8-dione] | 217 |  |  |  |  |  |  |
| O=C1C(Nc2ccc3c(c2)Cc2ccccc2-3)=CC(=O)c2ncncc21 [QD391, 6-(9H-Fluoren-2-ylamino)quinazoline-5,8-dione] | 236 to 237 |  |  |  |  |  |  |
| CCc1ccc(-c2ccc(NC3=CC(=O)c4ncncc4C3=O)cc2)cc1 [QD392, 6-(4′-Ethylbiphenyl-4-ylamino)quinazoline-5,8-dione] | 247 |  |  |  |  |  |  |
| O=C1C(Nc2ccc(C3CCCCC3)cc2)=CC(=O)c2ncncc21 [QD393, 6-(4-Cyclohexylphenylamino)quinazoline-5,8-dione] | 234 |  |  |  |  |  |  |
| O=C1C(Nc2ccc(-c3ccccn3)cc2)=CC(=O)c2ncncc21 [QD395, 6-(4-(Pyridin-2-yl)phenylamino)quinazoline-5,8-dione] | 239 |  |  |  |  |  |  |
